Data: patent US6706663B2, “Herbicidal 3-heterocyclic substituted benzisothiazole and benzisoxazole compounds” (Wyeth, priority 2000, dated 2004)

How the values were obtained:
[1] = tested on: ECHORC (Echinochloa oryzoides); experiment: Flooded paddy, preemergence weed control; assay type: in vivo, Echinochloa oryzoides (Ard.) Fritsch.; details: rated 3-4 weeks after treatment, 0-9 rating scale
Outline: (§1)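 Ratings of 0-9 reflect visual comparison with a control for stand, vigor, deformity, size, chlorosis and overall look. Propagules were placed in shallow silt loam (top 0.5 cm) under a continuous 1.5–3 cm flood and grown in the greenhouse.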

[2] = tested on: GLXMAW (Soybean, Williams); experiment: Postemergence herbicidal evaluation; assay type: in vivo, Glycine max, (L.) Merr. cv Williams; details: postemergence
Outline: (§2)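 Seedlings grown for about two weeks were sprayed postemergence and then kept under standard greenhouse care. Injury was rated visually 4–5 weeks after treatment on a 0–9 scale against untreated controls, and ratings from repeat tests were averaged.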

[3] = tested on: AMBEL (Ambrosia artemisifolia); experiment: Preemergence herbicidal evaluation; assay type: in vivo, L.; details: rated 4-5 weeks after treatment
Outline: (§3)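 Each species was sown separately in potting soil over roughly one inch of soil, and the surface sprayed with compound dissolved in aqueous acetone. Assessment used a 0–9 visual scale against a control after four to five weeks.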

[4] = tested on: CHEAL (Chenopodium album); experiment: Preemergence herbicidal evaluation; assay type: in vivo, L.; details: rated 4-5 weeks after treatment
Outline: as §3

[5] = tested on: CASOB (Cassia obtusifolia); experiment: Preemergence herbicidal evaluation; assay type: in vivo, L.; details: rated 4-5 weeks after treatment
Outline: as §3

[6] = tested on: ABUTH (Abutilon theophrasti); experiment: Preemergence herbicidal evaluation; assay type: in vivo, Medic.; details: rated 4-5 weeks after treatment
SETVI (Setaria viridis) [7] = experiment: Postemergence herbicidal evaluation; assay type: in vivo, (L.) Beau; details: postemergence
Outline: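 Visual injury score (0-9: stand, vigor, malformation, size, chlorosis, overall appearance vs untreated control) taken four to five weeks post-spray. Two-week-old seedlings received about 0.0040 to 1.000 kg/ha active compound in acetone/water with 0.5% TWEEN 20.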

[8] = tested on: MOOVA (Monochoria vaginalis); experiment: Flooded paddy, preemergence weed control; assay type: in vivo, Presl.; details: rated 3-4 weeks after treatment, 0-9 rating scale
Outline: as §1

ORYSAT (Rice, Tebonnet) [9] = experiment: Preemergence herbicidal evaluation; assay type: in vivo, Oryza sativa, (L.) Tebonnet; details: rated 4-5 weeks after treatment
ORYSAT (Rice, Tebonnet) [10] = experiment: Postemergence herbicidal evaluation; assay type: in vivo, Oryza sativa, (L.) Tebonnet; details: postemergence
Outline: as §2

[11] = tested on: CYPSE (Cyperus serotinus); experiment: Flooded paddy, preemergence weed control; assay type: in vivo, Rottb.; details: rated 3-4 weeks after treatment, 0-9 rating scale
Outline: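 Herbicidal effect was scored visually on a 0–9 scale against an untreated control 3–4 weeks after treatment. Compounds were applied preemergence as 50/50 v/v aqueous/acetone mixtures into flood water (1.5–3 cm deep over silt loam), at roughly 0.0080 to 0.1250 kg/ha active ingredient.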

[12] = tested on: ECHCG (Echinochloa crus-galli); experiment: Preemergence herbicidal evaluation; assay type: in vivo, (L.) Beau; details: rated 4-5 weeks after treatment
Outline: as §3

SETVI (Setaria viridis) [13] = experiment: Preemergence herbicidal evaluation; assay type: in vivo, (L.) Beau; details: rated 4-5 weeks after treatment
Outline: as §3

ZEAMX (Corn, Field) = experiment: Postemergence herbicidal evaluation; assay type: in vivo, Zea mays, L.; details: postemergence
Outline: as §2

[14] = tested on: IPOHE (Ipomoea hederacea); experiment: Postemergence herbicidal evaluation; assay type: in vivo, (L.) Jacq.; details: postemergence
Outline: as §2

[15] = tested on: TRZAWR (Wheat, Winter, cv Riband); experiment: Preemergence herbicidal evaluation; assay type: in vivo, Triticum aestivum; details: rated 4-5 weeks after treatment
Outline: as §3

[16] = tested on: ECHCG (Echinochloa crus-galli); experiment: Postemergence herbicidal evaluation; assay type: in vivo, (L.) Beau; details: postemergence
Outline: as §2

[17] = tested on: TRZAWR (Wheat, Winter, cv Riband); experiment: Postemergence herbicidal evaluation; assay type: in vivo, Triticum aestivum; details: postemergence
Outline: as §2

Cn1c(C(F)(F)F)cc(=O)n(-c2ccc3snc(-c4sccc4Cl)c3c2)c1=O [Compound 52, 3-[3-(3-chloro-2-thienyl)-1,2-benzisothiazol-5-yl]-1-methyl-6-(trifluoromethyl)uracil]
7.5: GLXMAW herbicidal rating ([2]; rate 0.0320 kg/ha) | Preemergence herbicidal rating ECHCG ([12]; Rate 0.0620 kg/ha)
1.0: Preemergence herbicidal rating CASOB ([5]; Rate 0.0620 kg/ha) | Preemergence herbicidal rating CASOB ([5]; Rate 0.1250 kg/ha) | Preemergence herbicidal rating ORYSAT (ORYSAT (Rice, Tebonnet) [9]; Rate 0.0620 kg/ha) | Preemergence herbicidal rating TRZAWR ([15]; Rate 0.0620 kg/ha) | Preemergence herbicidal rating TRZAWR ([15]; Rate 0.1250 kg/ha) | ECHCG herbicidal rating ([16]; rate 0.0620 kg/ha)
3.5: Preemergence herbicidal rating AMBEL ([3]; Rate 0.0620 kg/ha) | Preemergence herbicidal rating ORYSAT (ORYSAT (Rice, Tebonnet) [9]; Rate 0.2500 kg/ha) | ZEAMX herbicidal rating (ZEAMX (Corn, Field); rate 0.0320 kg/ha) | ZEAMX herbicidal rating (ZEAMX (Corn, Field); rate 0.0620 kg/ha)
7.0: GLXMAW herbicidal rating ([2]; rate 0.0620 kg/ha)
0.0: ECHCG herbicidal rating ([16]; rate 0.0320 kg/ha)
9.0: herbicidal rating, ECHORC ([1]; rate 0.0320 kg/ha) | herbicidal rating, ECHORC ([1]; rate 0.1250 kg/ha) | Preemergence herbicidal rating AMBEL ([3]; Rate 0.2500 kg/ha) | Preemergence herbicidal rating CHEAL ([4]; Rate 0.0620 kg/ha) | Preemergence herbicidal rating CHEAL ([4]; Rate 0.1250 kg/ha) | Preemergence herbicidal rating CHEAL ([4]; Rate 0.2500 kg/ha) | Preemergence herbicidal rating ABUTH ([6]; Rate 0.0620 kg/ha) | Preemergence herbicidal rating ABUTH ([6]; Rate 0.2500 kg/ha) | SETVI herbicidal rating (SETVI (Setaria viridis) [7]; rate 0.0320 kg/ha) | SETVI herbicidal rating (SETVI (Setaria viridis) [7]; rate 0.0620 kg/ha) | SETVI herbicidal rating (SETVI (Setaria viridis) [7]; rate 0.1250 kg/ha) | herbicidal rating, MOOVA ([8]; rate 0.0080 kg/ha) | herbicidal rating, MOOVA ([8]; rate 0.0320 kg/ha) | herbicidal rating, MOOVA ([8]; rate 0.1250 kg/ha) | herbicidal rating, CYPSE ([11]; rate 0.0320 kg/ha) | herbicidal rating, CYPSE ([11]; rate 0.1250 kg/ha) | Preemergence herbicidal rating ECHCG ([12]; Rate 0.2500 kg/ha) | Preemergence herbicidal rating SETVI (SETVI (Setaria viridis) [13]; Rate 0.0620 kg/ha) | Preemergence herbicidal rating SETVI (SETVI (Setaria viridis) [13]; Rate 0.1250 kg/ha) | Preemergence herbicidal rating SETVI (SETVI (Setaria viridis) [13]; Rate 0.2500 kg/ha) | IPOHE herbicidal rating ([14]; rate 0.0320 kg/ha) | IPOHE herbicidal rating ([14]; rate 0.0620 kg/ha) | IPOHE herbicidal rating ([14]; rate 0.1250 kg/ha)
1.5: Preemergence herbicidal rating ORYSAT (ORYSAT (Rice, Tebonnet) [9]; Rate 0.1250 kg/ha)
4.0: Preemergence herbicidal rating CASOB ([5]; Rate 0.2500 kg/ha) | ORYSAT herbicidal rating (ORYSAT (Rice, Tebonnet) [10]; rate 0.1250 kg/ha) | TRZAWR herbicidal rating ([17]; rate 0.0320 kg/ha) | TRZAWR herbicidal rating ([17]; rate 0.0620 kg/ha)
8.5: herbicidal rating, ECHORC ([1]; rate 0.0080 kg/ha) | GLXMAW herbicidal rating ([2]; rate 0.1250 kg/ha) | Preemergence herbicidal rating AMBEL ([3]; Rate 0.1250 kg/ha) | Preemergence herbicidal rating ABUTH ([6]; Rate 0.1250 kg/ha) | Preemergence herbicidal rating ECHCG ([12]; Rate 0.1250 kg/ha)
5.0: ZEAMX herbicidal rating (ZEAMX (Corn, Field); rate 0.1250 kg/ha) | ECHCG herbicidal rating ([16]; rate 0.1250 kg/ha) | TRZAWR herbicidal rating ([17]; rate 0.1250 kg/ha)
3.0: ORYSAT herbicidal rating (ORYSAT (Rice, Tebonnet) [10]; rate 0.0320 kg/ha) | ORYSAT herbicidal rating (ORYSAT (Rice, Tebonnet) [10]; rate 0.0620 kg/ha) | Preemergence herbicidal rating TRZAWR ([15]; Rate 0.2500 kg/ha)

Cn1c(C(F)(F)F)cc(=O)n(-c2ccc3snc(C4(C)OCCO4)c3c2)c1=O [Compound 54, 1-methyl-3-[3-(2-methyl-1,3-dioxolan-2-yl)-1,2-benzisothiazol-5-yl]-6-(trifluoromethyl)uracil]
4.0: ZEAMX herbicidal rating (ZEAMX (Corn, Field); rate 0.0320 kg/ha) | ZEAMX herbicidal rating (ZEAMX (Corn, Field); rate 0.0620 kg/ha)
1.0: ECHCG herbicidal rating ([16]; rate 0.0320 kg/ha)
7.0: ORYSAT herbicidal rating (ORYSAT (Rice, Tebonnet) [10]; rate 0.1250 kg/ha)
5.0: ORYSAT herbicidal rating (ORYSAT (Rice, Tebonnet) [10]; rate 0.0320 kg/ha) | TRZAWR herbicidal rating ([17]; rate 0.0320 kg/ha)
5.5: ZEAMX herbicidal rating (ZEAMX (Corn, Field); rate 0.1250 kg/ha)
8.5: GLXMAW herbicidal rating ([2]; rate 0.0620 kg/ha)
9.0: herbicidal rating, ECHORC ([1]; rate 0.1250 kg/ha) | GLXMAW herbicidal rating ([2]; rate 0.1250 kg/ha) | Preemergence herbicidal rating AMBEL ([3]; Rate 0.0620 kg/ha) | Preemergence herbicidal rating AMBEL ([3]; Rate 0.1250 kg/ha) | Preemergence herbicidal rating AMBEL ([3]; Rate 0.2500 kg/ha) | Preemergence herbicidal rating CHEAL ([4]; Rate 0.0620 kg/ha) | Preemergence herbicidal rating CHEAL ([4]; Rate 0.1250 kg/ha) | Preemergence herbicidal rating CHEAL ([4]; Rate 0.2500 kg/ha) | Preemergence herbicidal rating CASOB ([5]; Rate 0.0620 kg/ha) | Preemergence herbicidal rating CASOB ([5]; Rate 0.1250 kg/ha) | Preemergence herbicidal rating CASOB ([5]; Rate 0.2500 kg/ha) | Preemergence herbicidal rating ABUTH ([6]; Rate 0.0620 kg/ha) | Preemergence herbicidal rating ABUTH ([6]; Rate 0.1250 kg/ha) | Preemergence herbicidal rating ABUTH ([6]; Rate 0.2500 kg/ha) | SETVI herbicidal rating (SETVI (Setaria viridis) [7]; rate 0.0620 kg/ha) | herbicidal rating, MOOVA ([8]; rate 0.0320 kg/ha) | herbicidal rating, MOOVA ([8]; rate 0.1250 kg/ha) | Preemergence herbicidal rating ORYSAT (ORYSAT (Rice, Tebonnet) [9]; Rate 0.0620 kg/ha) | Preemergence herbicidal rating ORYSAT (ORYSAT (Rice, Tebonnet) [9]; Rate 0.1250 kg/ha) | Preemergence herbicidal rating ORYSAT (ORYSAT (Rice, Tebonnet) [9]; Rate 0.2500 kg/ha) | herbicidal rating, CYPSE ([11]; rate 0.0320 kg/ha) | herbicidal rating, CYPSE ([11]; rate 0.1250 kg/ha) | Preemergence herbicidal rating ECHCG ([12]; Rate 0.0620 kg/ha) | Preemergence herbicidal rating ECHCG ([12]; Rate 0.1250 kg/ha) | Preemergence herbicidal rating ECHCG ([12]; Rate 0.2500 kg/ha) | Preemergence herbicidal rating SETVI (SETVI (Setaria viridis) [13]; Rate 0.0620 kg/ha) | Preemergence herbicidal rating SETVI (SETVI (Setaria viridis) [13]; Rate 0.1250 kg/ha) | Preemergence herbicidal rating SETVI (SETVI (Setaria viridis) [13]; Rate 0.2500 kg/ha) | IPOHE herbicidal rating ([14]; rate 0.0320 kg/ha) | IPOHE herbicidal rating ([14]; rate 0.0620 kg/ha) | IPOHE herbicidal rating ([14]; rate 0.1250 kg/ha) | Preemergence herbicidal rating TRZAWR ([15]; Rate 0.0620 kg/ha) | Preemergence herbicidal rating TRZAWR ([15]; Rate 0.1250 kg/ha) | Preemergence herbicidal rating TRZAWR ([15]; Rate 0.2500 kg/ha)
8.0: herbicidal rating, ECHORC ([1]; rate 0.0080 kg/ha) | herbicidal rating, ECHORC ([1]; rate 0.0320 kg/ha) | GLXMAW herbicidal rating ([2]; rate 0.0320 kg/ha) | SETVI herbicidal rating (SETVI (Setaria viridis) [7]; rate 0.1250 kg/ha)
6.5: ORYSAT herbicidal rating (ORYSAT (Rice, Tebonnet) [10]; rate 0.0620 kg/ha) | TRZAWR herbicidal rating ([17]; rate 0.0620 kg/ha)
3.0: SETVI herbicidal rating (SETVI (Setaria viridis) [7]; rate 0.0320 kg/ha) | ECHCG herbicidal rating ([16]; rate 0.0620 kg/ha) | ECHCG herbicidal rating ([16]; rate 0.1250 kg/ha)
7.5: TRZAWR herbicidal rating ([17]; rate 0.1250 kg/ha)
